Columns and labels:
[1] = target: T1, human vanin-1 (Homo sapiens (Human), UniProt O95497); assay: Human Vanin-1 Enzyme Assay 3; type: biochemical; conditions: 2 nM human vanin-1, 10 uM substrate, 15 min
Method: Human Vanin-1 Enzyme Assay 3.
(§1) The in vitro assay measures enzymatic cleavage of the fluorescently-labeled vanin substrate, pantetheine 7-amino-4-trifluoromethylcoumarin, by human vanin-1.
(§2) The vanin-1 protein was prepared in-house from a construct expressing the extracellular domain of human vanin-1 (GenBank ID NM_004666) preceded N-terminally by the honey bee melittin signal peptide, a GSG linker sequence, a His6X tag and a FLAG tag. The secreted, soluble enzyme was purified from the conditioned medium from a CHO cell line stably expressing the resulting protein. Enzyme purification was performed through sequential Ni NTA and size-exclusion chromatography steps.
On the day of the assay, dose response plates were prepared by diluting the inhibitors in DMSO at compound concentration 100-fold the final in-assay concentration. Concentration series were prepared by serially diluting in DMSO in a two-fold series for a total of 11 data points. Intermediate compound plates containing compound in 10% DMSO were then created by diluting the compounds 10-fold in assay buffer consisting of 50 mM Tris-HCl pH=8.0, 50 mM KCl, 0.005% Brij-35 and 1.5 mM cysteamine. To begin the assay 3 μL were transferred from the intermediate compound plate to the assay plate.
A working solution of human vanin-1 was prepared by diluting the enzyme stock to 2.5 nM in assay buffer. Next, 24 μL of the vanin-1 working solution were transferred to the assay plate. The enzyme reaction was then initiated by the addition of 3 μL of 100 μM pantetheine 7-amino-4-trifluoromethylcoumarin prepared in 5 uM acetic acid. The final concentrations in the assay were 2 nM human vanin-1 and 10 uM substrate. The final concentration of DMSO was 1%. The assay plates were incubated at room temperature for 15 minutes and before they were read on a Tecan Safire using a 405 nm excitation wavelength and a 505 nm emission wavelength for detection.

[2] = target: T1, human vanin-1; assay: Human Vanin-1 Enzyme Assay 1; type: biochemical; conditions: 25 pM human vanin-1, 50 uM pantetheine 7-amino-4-trifluoromethylcoumarin, 30 min preincubation, 60 min
Method: Human Vanin-1 Enzyme Assay 1.
as §1, §2
The test inhibitors were solubilized in DMSO to a stock concentration of 30 mM. On the day of the assay, dose response plates were prepared by diluting the inhibitors in DMSO at compound concentration 200-fold the final in-assay concentration. Intermediate concentrations were prepared by diluting in DMSO in a four-fold series for a total of 11 data points.
To prepare a working solution of human vanin-1, the enzyme was diluted to 33.3 pM in the assay buffer consisting of 50 mM Tris-HCl pH=8.0, 50 mM KCl, 0.005% Brij-35 and […] cysteamine. To begin the assay 100 nL was transferred from the compound plate to the assay plate. Next, 15 μL of the vanin-1 working solution were transferred to the assay plate. The inhibitor and enzyme were incubated at room temperature for 30 minutes. The enzyme reaction was then initiated by the addition of 5 μL of 200 μM pantetheine 7-amino-4-trifluoromethylcoumarin prepared in assay buffer. The final concentrations in the assay were 25 pM human vanin-1 and 50 uM substrate. The final concentration of DMSO was 0.5%. The assay plates were incubated for 60 minutes and before they were read on a Perkin Elmer EnVision Model 2103 using a 405 nm excitation wavelength and a 510 nm emission wavelength for detection.

T1 sequence (O95497 22-491): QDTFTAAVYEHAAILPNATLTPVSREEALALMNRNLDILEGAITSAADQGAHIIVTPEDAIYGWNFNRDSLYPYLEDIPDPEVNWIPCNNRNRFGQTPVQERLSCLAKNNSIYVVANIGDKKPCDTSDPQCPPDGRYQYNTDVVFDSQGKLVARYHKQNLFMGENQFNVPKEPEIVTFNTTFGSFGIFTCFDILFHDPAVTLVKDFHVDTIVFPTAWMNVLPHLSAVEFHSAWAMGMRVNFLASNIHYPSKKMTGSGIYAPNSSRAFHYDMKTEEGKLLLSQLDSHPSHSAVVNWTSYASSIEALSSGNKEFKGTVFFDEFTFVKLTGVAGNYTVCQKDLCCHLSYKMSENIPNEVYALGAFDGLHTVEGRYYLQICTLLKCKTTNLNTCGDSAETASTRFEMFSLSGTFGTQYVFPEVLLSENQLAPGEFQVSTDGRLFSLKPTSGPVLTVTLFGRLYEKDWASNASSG

Structure (SMILES) | IC50 [1] | IC50 [2]
N#Cc1cccc(C(=O)c2cnc(NC3(c4cccnc4)CC3)nc2)c1 [Example 2, 3-[(2-{[1-(pyridin-3-yl)cyclopropyl]amino}pyrimidin-5-yl)carbonyl]benzonitrile] | 0.0021 µM | 
O=C(c1cnc(NCc2cccnc2)nc1)c1ccc(F)c(F)c1 [Example 22, (3,4-difluorophenyl){2-[(pyridin-3-ylmethyl)amino]pyrimidin-5-yl}methanone] | 0.0437 µM | 0.0933 µM
O=C(c1ccc(C(F)(F)F)cc1)c1cnc(NCc2cccnc2)nc1 [Example 51, {2-[(pyridin-3-ylmethyl)amino]pyrimidin-5-yl}[4-(trifluoromethyl)phenyl]methanone] | 0.0449 µM | 
O=C(c1ccc(Cl)cc1)c1cnc(NCc2ccc(F)cc2)nc1 [Example 52, (4-chlorophenyl){2-[(4-fluorobenzyl)amino]pyrimidin-5-yl}methanone] | 0.17 µM | 
COc1ccc(CNc2ncc(C(=O)c3ccc(OC)cc3)cn2)cc1 [Example 53, {2-[(4-methoxybenzyl)amino]pyrimidin-5-yl}(4-methoxyphenyl) methanone] | 0.637 µM | 
O=C(c1ccc(C(F)(F)F)cc1)c1cnc(NCc2ccc(F)cc2)nc1 [Example 54, {2-[(4-fluorobenzyl)amino]pyrimidin-5-yl}[4-(trifluoromethyl)phenyl]methanone] | 0.0354 µM | 
COc1ccc(CNc2ncc(C(=O)c3ccc(C(F)(F)F)cc3)cn2)cc1 [Example 55, {2-[(4-methoxybenzyl)amino]pyrimidin-5-yl}[4-(trifluoromethyl)phenyl]methanone] | < 0.0165 µM | 
O=C(c1cnc(NCc2ccncc2)nc1)c1cccc(C(F)(F)F)c1 [Example 56, {2-[(pyridin-4-ylmethyl)amino]pyrimidin-5-yl}[3-(trifluoromethyl)phenyl]methanone] | 0.0362 µM | 
O=C(c1cnc(NCc2ccc(Cl)cc2F)nc1)c1cccc(C(F)(F)F)c1 [Example 61, {2-[(4-chloro-2-fluorobenzyl)amino]pyrimidin-5-yl}[3-(trifluoromethyl)phenyl]methanone] | 0.0249 µM | 
O=C(c1cnc(NC2(c3cccnc3)CC2)nc1)c1cccc(C(F)(F)F)c1 [Example 71, (2-{[1-(pyridin-3-yl)cyclopropyl]amino}pyrimidin-5-yl)[3-(trifluoromethyl)phenyl]methanone] | 0.0238 µM | 
COc1ccc(C(=O)c2cnc(NCc3ccc(OC(F)(F)F)cc3)nc2)cc1 [Example 75, (4-methoxyphenyl) (2-{[4-(trifluoromethoxy)benzyl]amino}pyrimidin-5-yl)methanone] | 0.617 µM | 
COc1ccc(C(=O)c2cnc(NCc3cccc(C#N)c3)nc2)cc1 [Example 77, 3-({[5-(4-methoxybenzoyl)pyrimidin-2-yl]amino}methyl) benzonitrile] | 0.998 µM | 
N#Cc1cc(Cl)cc(C(=O)c2cnc(NC3(c4cncnc4)CC3)nc2)c1 [Example 146, 3-chloro-5-[(2-{[1-(pyrimidin-5-yl)cyclopropyl]amino}pyrimidin-5-yl)carbonyl] benzonitrile] |  | 0.026 µM
N#Cc1cccc(C(=O)c2cnc(NC3(c4cnc(N)cn4)CC3)nc2)c1 [Example 151, 3-[(2-{[1-(5-aminopyrazin-2-yl)cyclopropyl]amino}pyrimidin-5-yl)carbonyl] benzonitrile] |  | 0.0278 µM
N#Cc1cccc(C(=O)c2cnc(NC3(c4ccc(C(N)=O)nc4)CC3)nc2)c1 [Example 152, 5-(1-{[5-(3-cyanobenzoyl)pyrimidin-2-yl]amino}cyclo-propyl)pyridine-2-carboxamide] |  | 0.0777 µM
COc1ccc(COc2ncc(C(=O)c3cccc(C(F)(F)F)c3)cn2)cc1 [Example 157, {2-[(4-methoxybenzyl)oxy]pyrimidin-5-yl}[3-(trifluoromethyl)phenyl]methanone] | > 2.34 µM | 
O=C(c1cnc(OCc2ccc(OC(F)(F)F)cc2)nc1)c1cccc(C(F)(F)F)c1 [Example 158, (2-{[4-(trifluoromethoxy)benzyl]oxy}pyrimidin-5-yl)[3-(trifluoromethyl)phenyl]methanone] | > 2.89 µM | 
COc1ccc(C(=O)c2cnc(NC3(c4cncnc4)CC3)nc2)cc1C#N [Example 161, 2-methoxy-5-[(2-{[1-(pyrimidin-5-yl)cyclopropyl]amino}pyrimidin-5-yl)carbonyl] benzonitrile] |  | 1.85 µM

The remaining lines, values ahead:

IC50 [1] | IC50 [2] | Structure (SMILES)
0.0632 µM | 4.17 µM | N#Cc1cccc(CNc2ncc(C(=O)c3cccc(Cl)c3)cn2)c1 [Example 26, 3-({[5-(3-chlorobenzoyl)pyrimidin-2-yl]amino}methyl) benzonitrile]
0.031 µM |  | O=C(c1cnc(NCc2ccc(F)cc2)nc1)c1cccc(Cl)c1 [Example 36, (3-chlorophenyl){2-[(4-fluorobenzyl)amino]pyrimidin-5-yl}methanone]
0.205 µM |  | N#Cc1ccc(CNc2ncc(C(=O)c3ccc(C(F)(F)F)cc3)cn2)cc1 [Example 50, 4-[({5-[4-(trifluoromethyl)benzoyl]pyrimidin-2-yl}amino)methyl] benzonitrile]
0.889 µM |  | O=C(c1ccc(Cl)cc1)c1cnc(NCc2ccc(Cl)cc2)nc1 [Example 57, {2-[(4-chlorobenzyl)amino]pyrimidin-5-yl}(4-chlorophenyl) methanone]
0.133 µM |  | O=C(c1cnc(NCc2ccc(OC(F)(F)F)cc2)nc1)c1cccc(C(F)(F)F)c1 [Example 58, (2-{[4-(trifluoromethoxy)benzyl]amino}pyrimidin-5-yl)[3-(trifluoromethyl)phenyl]methanone]
0.0895 µM |  | COc1ccc(C(=O)c2cnc(NCc3ccccn3)nc2)cc1 [Example 60, (4-methoxyphenyl) {2-[(pyridin-2-ylmethyl)amino]pyrimidin-5-yl}methanone]
0.569 µM |  | COc1ccc(CNc2ncc(C(=O)c3ccc(Cl)cc3)cn2)cc1 [Example 63, (4-chlorophenyl){2-[(4-methoxybenzyl)amino]pyrimidin-5-yl}methanone]
0.736 µM |  | COc1ccc(C(=O)c2cnc(NCc3ccccc3)nc2)cc1 [Example 74, [2-(benzylamino)pyrimidin-5-yl](4-methoxyphenyl) methanone]
0.112 µM |  | N#Cc1ccc(CNc2ncc(C(=O)c3cccc(C(F)(F)F)c3)cn2)cc1 [Example 76, 4-[({5-[3-(trifluoromethyl)benzoyl]pyrimidin-2-yl}amino)methyl] benzonitrile]
0.601 µM |  | O=C(c1cnc(NCc2ccnnc2)nc1)c1cccc(C(F)(F)F)c1 [Example 122, {2-[(pyridazin-4-ylmethyl)amino]pyrimidin-5-yl}[3-(trifluoromethyl)phenyl]methanone]
 | 0.0557 µM | NC(=O)c1cccc(C(=O)c2cnc(NC3(c4cnccn4)CC3)nc2)c1 [Example 147, 3-[(2-{[1-(pyrazin-2-yl)cyclopropyl]amino}pyrimidin-5-yl)carbonyl] benzamide]
 | 0.26 µM | O=C(O)c1cccc(C(=O)c2cnc(NC3(c4cncnc4)CC3)nc2)c1 [Example 148, 3-[(2-{[1-(pyrimidin-5-yl)cyclopropyl]amino}pyrimidin-5-yl)carbonyl] benzoic acid]
 | 0.0256 µM | NC(=O)c1cccc(C(=O)c2cnc(NC3(c4cncnc4)CC3)nc2)c1 [Example 149, 3-[(2-{[1-(pyrimidin-5-yl)cyclopropyl]amino}pyrimidin-5-yl)carbonyl] benzamide]
 | 0.0239 µM | O=C(O)Cc1cccc(C(=O)c2cnc(NC3(c4cncnc4)CC3)nc2)c1 [Example 150, {3-[(2-{[1-(pyrimidin-5-yl)cyclopropyl]amino}pyrimidin-5-yl)carbonyl]phenyl}acetic acid]
 | 0.307 µM | N#Cc1cccc(C(=O)c2cnc(NC3(c4ccc(O)nc4)CC3)nc2)c1 [Example 153, 3-[(2-{[1-(6-hydroxypyridin-3-yl)cyclopropyl]amino}pyrimidin-5-yl)carbonyl] benzonitrile]
 | 0.0726 µM | N#Cc1cccc(C(=O)c2cnc(NCC3CCC(O)CC3)nc2)c1 (stereo not drawn) [Example 162, 3-[(2-{[(4-hydroxycyclohexyl)methyl]amino}pyrimidin-5-yl)carbonyl] benzonitrile]
